From patent US10526316B2, “Quinoxaline and pyridopyrazine derivatives as PI3Kβ inhibitors” (Janssen Pharmaceutica NV, priority 2015, dated 2020)
Like-named read-outs stand apart in the source and are kept apart here.

How the values were obtained:
[1] = target: T1, kinase enzymes (Homo sapiens, UniProt P42336); test: Enzyme binding assay (KINOMEscan, DiscoveRx), further kinases of Table A; details: PIK3Cα_h
T1 construct: purchased DiscoveRx Corporation, San Diego (contract service, KINOMEscan)
How it was run: (§1)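 Kinase binding measured via KINOMEscan, reported as affinity.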

[2] = target: T2, kinase enzymes (Homo sapiens, UniProt P48736); test: as above; details: PIK3Cγ_h
T2 construct: purchased DiscoveRx Corporation, San Diego (contract service, KINOMEscan)
T2 sequence (P48736 whole entry): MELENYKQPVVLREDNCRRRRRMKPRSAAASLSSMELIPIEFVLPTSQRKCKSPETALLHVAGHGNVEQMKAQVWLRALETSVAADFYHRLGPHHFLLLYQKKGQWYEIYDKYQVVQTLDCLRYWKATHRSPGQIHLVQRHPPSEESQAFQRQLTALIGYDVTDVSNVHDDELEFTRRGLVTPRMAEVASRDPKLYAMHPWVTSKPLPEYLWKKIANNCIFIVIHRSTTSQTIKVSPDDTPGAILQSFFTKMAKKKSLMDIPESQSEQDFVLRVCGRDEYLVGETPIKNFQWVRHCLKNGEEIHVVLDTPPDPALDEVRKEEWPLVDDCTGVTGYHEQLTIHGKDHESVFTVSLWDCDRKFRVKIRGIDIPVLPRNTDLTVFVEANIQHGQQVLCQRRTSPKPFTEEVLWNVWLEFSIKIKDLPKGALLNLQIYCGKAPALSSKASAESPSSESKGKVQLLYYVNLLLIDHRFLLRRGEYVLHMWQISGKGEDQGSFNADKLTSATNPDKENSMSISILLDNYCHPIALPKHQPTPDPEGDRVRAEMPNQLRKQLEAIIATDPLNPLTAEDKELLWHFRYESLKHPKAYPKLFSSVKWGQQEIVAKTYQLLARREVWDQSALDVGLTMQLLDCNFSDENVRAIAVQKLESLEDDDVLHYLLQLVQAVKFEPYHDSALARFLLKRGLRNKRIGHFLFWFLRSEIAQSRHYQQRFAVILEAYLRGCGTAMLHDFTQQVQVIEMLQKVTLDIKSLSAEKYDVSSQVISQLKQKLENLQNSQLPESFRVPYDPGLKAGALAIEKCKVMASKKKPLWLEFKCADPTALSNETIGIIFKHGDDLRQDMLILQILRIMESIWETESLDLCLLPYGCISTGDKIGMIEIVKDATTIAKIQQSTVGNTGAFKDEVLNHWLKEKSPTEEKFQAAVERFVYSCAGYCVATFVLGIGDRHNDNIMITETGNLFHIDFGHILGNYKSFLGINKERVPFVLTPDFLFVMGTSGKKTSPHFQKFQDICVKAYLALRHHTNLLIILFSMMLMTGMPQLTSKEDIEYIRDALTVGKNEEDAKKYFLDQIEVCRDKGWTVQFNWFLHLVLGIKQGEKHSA
How it was run: as §1

[3] = target: T3, kinase enzymes (Homo sapiens, UniProt P42345); test: as above; details: MTOR_h
T3 construct: purchased DiscoveRx Corporation, San Diego (contract service, KINOMEscan)
How it was run: as §1

[4] = target: T4, PI3Kβ (Homo sapiens, UniProt P42338); test: Enzyme binding assay (KINOMEscan, DiscoveRx); details: PIK3Cβ_h, read-out: Kd PIK3Cβ_h
T4 construct: purchased DiscoveRx Corporation, San Diego (contract service, KINOMEscan)
T4 sequence (P42338 whole entry): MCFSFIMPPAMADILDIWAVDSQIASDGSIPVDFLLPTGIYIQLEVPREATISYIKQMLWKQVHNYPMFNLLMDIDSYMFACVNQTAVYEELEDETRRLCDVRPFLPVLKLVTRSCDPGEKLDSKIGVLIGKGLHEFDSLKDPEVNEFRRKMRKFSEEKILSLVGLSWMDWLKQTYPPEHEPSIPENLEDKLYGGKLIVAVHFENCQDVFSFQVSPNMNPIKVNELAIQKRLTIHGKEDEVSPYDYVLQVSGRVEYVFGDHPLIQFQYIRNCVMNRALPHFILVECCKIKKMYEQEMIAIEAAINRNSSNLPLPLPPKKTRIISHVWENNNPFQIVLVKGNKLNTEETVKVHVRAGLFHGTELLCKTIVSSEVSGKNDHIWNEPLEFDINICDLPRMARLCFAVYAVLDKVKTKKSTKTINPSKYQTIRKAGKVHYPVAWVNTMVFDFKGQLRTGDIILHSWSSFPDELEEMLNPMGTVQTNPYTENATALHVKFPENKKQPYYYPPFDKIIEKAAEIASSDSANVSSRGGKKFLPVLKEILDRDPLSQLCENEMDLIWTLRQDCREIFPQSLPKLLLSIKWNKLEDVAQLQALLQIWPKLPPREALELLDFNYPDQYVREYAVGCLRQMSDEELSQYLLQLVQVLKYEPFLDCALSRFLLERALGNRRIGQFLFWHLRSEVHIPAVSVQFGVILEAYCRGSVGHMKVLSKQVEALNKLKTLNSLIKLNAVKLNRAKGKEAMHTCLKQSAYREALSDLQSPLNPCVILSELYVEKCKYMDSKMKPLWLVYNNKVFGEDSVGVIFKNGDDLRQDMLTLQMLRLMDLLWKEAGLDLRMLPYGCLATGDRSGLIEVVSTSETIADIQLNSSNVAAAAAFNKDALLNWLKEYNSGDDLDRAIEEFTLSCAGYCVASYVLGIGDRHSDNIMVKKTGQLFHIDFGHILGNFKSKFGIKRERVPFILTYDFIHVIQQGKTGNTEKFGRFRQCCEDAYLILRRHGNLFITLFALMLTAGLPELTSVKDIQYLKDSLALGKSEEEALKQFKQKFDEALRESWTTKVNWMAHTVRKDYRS
How it was run: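 Reported Kd (nM) reflects inhibitor binding to the kinase, as measured by KINOMEscan technology.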

[5] = test system: Akt phosphorylated at Ser473 in PC-3 cells; test: Cellular assay: phosphorylation of Akt at Ser473 in PC-3 cells (MSD ELISA); type: cell-based; details: PC-3 cells, 60 min compound incubation, MSD ELISA, read-out: IC50 pAkt_S473
How it was run: (§2)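 After lysis of treated cells (60 min, 37° C, 0.3% DMSO), phospho-Akt levels were measured by MSD electrochemiluminescence ELISA. Potency was derived from concentration-response curves fitted over five concentrations.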

[6] = target: T5, PI3Kδ (Homo sapiens, UniProt O00329); test: Enzyme binding assay (KINOMEscan, DiscoveRx); details: PIK3Cδ_h
T5 construct: purchased DiscoveRx Corporation, San Diego (contract service, KINOMEscan)
T5 sequence (O00329 1-1044): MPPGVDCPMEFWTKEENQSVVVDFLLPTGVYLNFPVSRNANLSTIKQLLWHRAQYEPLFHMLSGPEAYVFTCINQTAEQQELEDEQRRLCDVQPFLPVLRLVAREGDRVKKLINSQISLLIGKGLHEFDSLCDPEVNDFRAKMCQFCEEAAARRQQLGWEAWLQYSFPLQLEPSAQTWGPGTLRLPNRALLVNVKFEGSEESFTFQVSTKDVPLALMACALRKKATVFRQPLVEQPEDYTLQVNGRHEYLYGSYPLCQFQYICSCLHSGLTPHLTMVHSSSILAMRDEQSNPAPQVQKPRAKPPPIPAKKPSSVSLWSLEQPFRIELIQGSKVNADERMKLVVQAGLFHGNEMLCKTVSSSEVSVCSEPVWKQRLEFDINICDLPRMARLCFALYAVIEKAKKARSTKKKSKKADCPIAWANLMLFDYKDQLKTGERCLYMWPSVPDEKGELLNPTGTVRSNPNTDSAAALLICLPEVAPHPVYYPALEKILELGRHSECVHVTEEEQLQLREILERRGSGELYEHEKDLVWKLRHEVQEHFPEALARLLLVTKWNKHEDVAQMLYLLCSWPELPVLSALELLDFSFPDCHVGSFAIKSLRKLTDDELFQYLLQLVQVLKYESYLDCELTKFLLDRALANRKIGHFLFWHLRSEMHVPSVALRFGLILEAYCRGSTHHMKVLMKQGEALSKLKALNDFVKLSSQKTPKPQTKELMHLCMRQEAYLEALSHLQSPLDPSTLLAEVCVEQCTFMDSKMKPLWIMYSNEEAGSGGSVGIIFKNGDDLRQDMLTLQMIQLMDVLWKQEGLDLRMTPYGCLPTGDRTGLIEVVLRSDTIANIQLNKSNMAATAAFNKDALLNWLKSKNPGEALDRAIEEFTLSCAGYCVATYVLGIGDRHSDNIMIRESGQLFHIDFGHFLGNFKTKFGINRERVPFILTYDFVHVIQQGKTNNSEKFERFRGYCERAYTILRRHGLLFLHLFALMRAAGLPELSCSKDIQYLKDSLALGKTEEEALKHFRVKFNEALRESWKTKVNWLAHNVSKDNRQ
How it was run: as §1

[7] = test system: Akt phosphorylated at Thr308 in PC-3 cells; test: Cellular assay: phosphorylation of Akt at Thr308 in PC-3 cells (MSD ELISA); type: cell-based; details: PC-3 cells, 60 min compound incubation, MSD ELISA, read-out: IC50 pAkt_Thr308
How it was run: as §2

T1 sequence (P42336 whole entry): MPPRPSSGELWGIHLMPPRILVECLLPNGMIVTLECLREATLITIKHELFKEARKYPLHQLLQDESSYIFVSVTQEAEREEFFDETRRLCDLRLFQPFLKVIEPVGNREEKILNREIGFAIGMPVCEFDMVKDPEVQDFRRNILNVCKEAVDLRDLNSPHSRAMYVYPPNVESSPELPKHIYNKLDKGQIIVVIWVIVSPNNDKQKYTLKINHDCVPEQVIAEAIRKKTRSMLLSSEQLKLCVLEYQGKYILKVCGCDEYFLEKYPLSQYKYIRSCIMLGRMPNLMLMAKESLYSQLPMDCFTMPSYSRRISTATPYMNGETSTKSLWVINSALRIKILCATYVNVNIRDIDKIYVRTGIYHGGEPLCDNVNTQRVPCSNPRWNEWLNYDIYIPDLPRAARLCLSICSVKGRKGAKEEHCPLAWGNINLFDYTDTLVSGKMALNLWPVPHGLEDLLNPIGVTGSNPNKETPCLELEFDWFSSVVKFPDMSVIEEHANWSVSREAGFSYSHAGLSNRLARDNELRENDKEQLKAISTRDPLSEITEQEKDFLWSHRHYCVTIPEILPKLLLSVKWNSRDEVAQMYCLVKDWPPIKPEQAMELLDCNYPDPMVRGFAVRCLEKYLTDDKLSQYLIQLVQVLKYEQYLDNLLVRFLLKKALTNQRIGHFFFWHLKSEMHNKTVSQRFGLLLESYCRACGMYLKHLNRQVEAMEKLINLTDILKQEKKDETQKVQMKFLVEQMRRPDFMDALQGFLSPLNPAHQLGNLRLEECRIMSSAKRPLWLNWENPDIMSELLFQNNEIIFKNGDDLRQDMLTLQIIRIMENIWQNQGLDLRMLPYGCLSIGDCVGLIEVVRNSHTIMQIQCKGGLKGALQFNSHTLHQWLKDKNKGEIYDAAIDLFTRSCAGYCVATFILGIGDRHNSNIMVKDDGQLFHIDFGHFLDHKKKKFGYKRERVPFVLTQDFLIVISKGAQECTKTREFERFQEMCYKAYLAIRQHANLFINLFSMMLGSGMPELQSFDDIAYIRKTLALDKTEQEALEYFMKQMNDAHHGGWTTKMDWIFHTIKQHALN

## CN(C)C(=O)c1cc(N2CCCC2c2cc(F)cc(F)c2)c2nc(N3CCOCC3)cnc2c1 (single isomer, unassigned) [Compound 395a]
[1]
  Kd: 3470 nM
[2]
  Kd: 17800 nM
[3]
  Kd: > 30200 nM
[4]
  Kd: 33 nM
[5]; Homo sapiens, PC-3, 1 h
  IC50: > 513 nM
[6]
  Kd: 1260 nM
other
  melting point: 90 °C
[7]; Homo sapiens, PC-3, 1 h
  IC50: > 513 nM

## CN(C)C(=O)c1cc(N2CCCC2c2cc(F)cc(F)c2)c2nc(N3CCOCC3)cnc2c1 (single isomer, unassigned) [Compound 395b]
[1]
  Kd: 3980 nM
[2]
  Kd: 32400 nM
[3]
  Kd: 18600 nM
[4]
  Kd: 631 nM
[5]
  IC50: > 513 nM
[6]
  Kd: 3550 nM
other
  melting point: 102 °C
[7]
  IC50: > 513 nM

## CN(C)C(=O)c1cc(N2CCC2c2ccc(F)cc2)c2nc(N3CCOCC3)cnc2c1 (single isomer, unassigned) [Compound 397a]
[1]
  Kd: 3630 nM
[2]
  Kd: 25100 nM
[3]
  Kd: 15500 nM
[4]
  Kd: 1410 nM
[5]; Homo sapiens, PC-3, 1 h
  IC50: > 513 nM
[6]
  Kd: 10700 nM
other
  melting point: 80 °C
[7]; Homo sapiens, PC-3, 1 h
  IC50: > 513 nM

## CC(Oc1cc(F)cc(F)c1)c1cc(C(=O)N(C)C)cc2ncc(C3=CCOCC3)nc12 (single isomer, unassigned) [Compound 403a]
[1]
  Kd: 1480 nM
[2]
  Kd: 8910 nM
[3]
  Kd: > 30200 nM
[4]
  Kd: 3 nM
[5]; Homo sapiens, PC-3, 1 h
  IC50: ~275 nM
[6]
  Kd: 331 nM
other
  melting point: 53 °C
[7]
  IC50: ~132 nM

## CC(Oc1cc(F)cc(F)c1)c1cc(C(=O)N(C)C)cc2ncc(C3=CCOCC3)nc12 (single isomer, unassigned) [Compound 403b]
[1]
  Kd: > 30200 nM
[2]
  Kd: > 30200 nM
[3]
  Kd: > 30200 nM
[4]
  Kd: 3160 nM
[5]
  IC50: > 513 nM
[6]
  Kd: 17400 nM
other
  melting point: 54 °C
[7]
  IC50: > 513 nM

## CNCCNC(=O)c1cc(C(C)Nc2cc(F)cc(F)c2)c2nc(N3CCOCC3)cnc2c1 (single isomer, unassigned) [Compound 406a]
[1]
  Kd: 372 nM
[2]
  Kd: 1050 nM
[3]
  Kd: 22900 nM
[4]
  Kd: 0.1 nM
[5]
  IC50: 8 nM
[6]
  Kd: 39 nM
other
  melting point: 80 °C
[7]
  IC50: 4 nM

## OCc1cc(C2CCCN2c2cc(F)cc(F)c2)c2nc(N3CCOCC3)cnc2c1 (stereo not shown) [Compound 10]
[1]
  Kd: 142 nM
[2]
  Kd: 336 nM
[3]
  Kd: > 30200 nM
[4]
  Kd: 0.5 nM
[5]; Homo sapiens, PC-3, 1 h
  IC50: 4 nM
[6]
  Kd: 74 nM
other
  melting point: 189 °C
[7]; Homo sapiens, PC-3, 1 h
  IC50: 3 nM

## CC(Nc1cc(F)cc(F)c1)c1cc(C(=O)N(C)C)cc2ncc(N3CCOCC3)nc12 (stereo not shown) [Compound 11]
[1]
  Kd: 631 nM
[2]
  Kd: 2510 nM
[3]
  Kd: > 30200 nM
[4]
  Kd: 1 nM
[5]; Homo sapiens, PC-3, 1 h
  IC50: 81 nM
[6]
  Kd: 275 nM
other
  melting point: 228 °C
[7]; Homo sapiens, PC-3, 1 h
  IC50: 42 nM

## OCCNCc1cc(C2CCCN2c2cc(F)cc(F)c2)c2nc(N3CCOCC3)cnc2c1 (stereo not shown) [Compound 14]
[1]
  Kd: 174 nM
[2]
  Kd: 229 nM
[3]
  Kd: > 10000 nM
[4]
  Kd: 0.2 nM
[5]; Homo sapiens, PC-3, 1 h
  IC50: 31 nM
[6]
  Kd: 36 nM
other
  melting point: 140 °C
[7]; Homo sapiens, PC-3, 1 h
  IC50: 11 nM

## CC(O)c1cc(C2CCCN2c2cc(F)cc(F)c2)c2nc(N3CCOCC3)cnc2c1 (stereo not shown) [Compound 16]
[1]
  Kd: 93 nM
[2]
  Kd: 126 nM
[3]
  Kd: 17000 nM
[4]
  Kd: 1 nM
[5]; Homo sapiens, PC-3, 1 h
  IC50: ~5 nM
[6]
  Kd: 16 nM
other
  melting point: 80 °C
[7]; Homo sapiens, PC-3, 1 h
  IC50: 2 nM

## CNCC(O)c1cc(C2CCCN2c2cc(F)cc(F)c2)c2nc(N3CCOCC3)cnc2c1 (stereo not shown) [Compound 19]
[1]
  Kd: 363 nM
[2]
  Kd: 309 nM
[3]
  Kd: 18200 nM
[4]
  Kd: 0.2 nM
[5]; Homo sapiens, PC-3, 1 h
  IC50: 15 nM
[6]
  Kd: 29 nM
other
  melting point: 80 °C
[7]; Homo sapiens, PC-3, 1 h
  IC50: 10 nM

## CCN(c1cccc(F)c1)C(C)c1cc(C(=O)N2CCOCC2)cc2ncc(N3CCOCC3)nc12 (stereo not shown) [Compound 20]
[1]
  Kd: 3630 nM
[2]
  Kd: 22400 nM
[3]
  Kd: 21900 nM
[4]
  Kd: 17 nM
[5]; Homo sapiens, PC-3, 1 h
  IC50: 363 nM
[6]
  Kd: 1550 nM
other
  melting point: 80 °C
[7]; Homo sapiens, PC-3, 1 h
  IC50: 372 nM

## CN(C)C(=O)c1cc(C2CCCN2c2ccccc2)c2nc(N3CCOCC3)cnc2c1 (stereo not shown) [Compound 27]
[1]
  Kd: 269 nM
[2]
  Kd: 1620 nM
[3]
  Kd: > 30200 nM
[4]
  Kd: 1 nM
[5]; Homo sapiens, PC-3, 1 h
  IC50: 22 nM
[6]
  Kd: 58 nM
other
  melting point: 80 °C
[7]; Homo sapiens, PC-3, 1 h
  IC50: 14 nM

## CN(C)C(=O)c1cc(C2CCCN2c2cccc(F)c2)c2nc(N3CCOCC3)cnc2c1 (stereo not shown) [Compound 28]
[1]
  Kd: 107 nM
[2]
  Kd: 832 nM
[3]
  Kd: > 30200 nM
[4]
  Kd: 1 nM
[5]; Homo sapiens, PC-3, 1 h
  IC50: 5 nM
[6]
  Kd: 29 nM
other
  melting point: 80 °C
[7]; Homo sapiens, PC-3, 1 h
  IC50: 6 nM

## COc1cc(F)cc(N2CCCC2c2cc(C(=O)N(C)C)cc3ncc(N4CCOCC4)nc23)c1 (stereo not shown) [Compound 32]
[1]
  Kd: 120 nM
[2]
  Kd: 646 nM
[3]
  Kd: > 30200 nM
[4]
  Kd: 1 nM
[5]; Homo sapiens, PC-3, 1 h
  IC50: 12 nM
[6]
  Kd: 85 nM
other
  melting point: 80 °C
[7]; Homo sapiens, PC-3, 1 h
  IC50: 17 nM

## O=C(c1cc(C2CCCN2c2cc(F)cc(F)c2)c2nc(N3CCOCC3)cnc2c1)N1CC2(C1)CS(=O)(=O)C2 (stereo not shown) [Compound 34]
[1]
  Kd: 50 nM
[2]
  Kd: 933 nM
[3]
  Kd: > 30200 nM
[4]
  Kd: 0.4 nM
[5]; Homo sapiens, PC-3, 1 h
  IC50: < 0.8 nM
[6]
  Kd: 30 nM
other
  melting point: 160 °C
[7]; Homo sapiens, PC-3, 1 h
  IC50: 3 nM

## Cc1cc(F)cc(N2CCCC2c2cc(C(=O)N(C)C)cc3ncc(N4CCOCC4)nc23)c1 (stereo not shown) [Compound 35]
[1]
  Kd: 162 nM
[2]
  Kd: 1910 nM
[3]
  Kd: > 30200 nM
[4]
  Kd: 2 nM
[5]; Homo sapiens, PC-3, 1 h
  IC50: ~39 nM
[6]
  Kd: 151 nM
other
  melting point: 80 °C
[7]; Homo sapiens, PC-3, 1 h
  IC50: ~26.9 nM
